Measurements from the NIST ThermoML archive (doi:10.1021/acs.jced.8b00358).

Columns and labels:
[1] = molar heat capacity at constant pressure; details: 83 kPa, Liquid, DSC
[2] = 83 kPa, Liquid; for speed of sound: Frequency=3 MHz, Single path-length method; for mass density: Vibrating tube method

CCCCCCC(=O)OCC(COC(=O)CCCCCC)(COC(=O)CCCCCC)COC(=O)CCCCCC [pentaerythritol tetraheptanoate]
Details	mass density [kg/m3]	molar heat capacity at constant pressure [J/K/mol]	speed of sound [m/s]
[1], 293.14 K	–	1059.1	–
[1], 294.14 K	–	1060.3	–
[1], 295.14 K	–	1062	–
[1], 296.14 K	–	1063.8	–
[1], 297.14 K	–	1065.6	–
[1], 298.14 K	–	1066.7	–
[1], 299.14 K	–	1068.5	–
[1], 300.14 K	–	1070.2	–
[1], 301.14 K	–	1071.4	–
[1], 302.14 K	–	1073.2	–
[1], 303.14 K	–	1074.9	–
[1], 304.14 K	–	1076.1	–
[1], 305.14 K	–	1077.8	–
[1], 306.14 K	–	1079	–
[1], 307.14 K	–	1080.8	–
[1], 308.14 K	–	1082.5	–
[1], 309.14 K	–	1083.7	–
[1], 310.14 K	–	1085.4	–
[1], 311.14 K	–	1086.6	–
[1], 312.14 K	–	1088.4	–
[1], 313.14 K	–	1090.1	–
[1], 314.14 K	–	1091.9	–
[1], 315.14 K	–	1093	–
[1], 316.14 K	–	1094.8	–
[1], 317.14 K	–	1096.5	–
[1], 318.14 K	–	1098.3	–
[1], 319.14 K	–	1099.5	–
[1], 320.14 K	–	1101.2	–
[1], 321.14 K	–	1103	–
[1], 322.13 K	–	1104.1	–
[1], 323.14 K	–	1105.9	–
[1], 324.14 K	–	1107.7	–
[1], 325.14 K	–	1108.8	–
[1], 326.14 K	–	1110.6	–
[1], 327.14 K	–	1112.3	–
[1], 328.14 K	–	1114.1	–
[1], 329.14 K	–	1115.8	–
[1], 330.14 K	–	1117	–
[1], 331.14 K	–	1118.8	–
[1], 332.14 K	–	1120.5	–
[1], 333.14 K	–	1121.7	–
[1], 334.13 K	–	1123.4	–
[1], 335.14 K	–	1125.2	–
[1], 336.14 K	–	1127	–
[1], 337.14 K	–	1128.1	–
[1], 338.14 K	–	1129.9	–
[1], 339.14 K	–	1131.6	–
[1], 340.14 K	–	1133.4	–
[1], 341.13 K	–	1134.6	–
[1], 342.14 K	–	1136.3	–
[1], 343.14 K	–	1138.1	–
[1], 344.14 K	–	1139.8	–
[1], 345.13 K	–	1141.6	–
[1], 346.14 K	–	1143.3	–
[1], 347.14 K	–	1145.1	–
[1], 348.14 K	–	1146.3	–
[1], 349.14 K	–	1148	–
[1], 350.14 K	–	1149.8	–
[1], 351.14 K	–	1151.5	–
[1], 352.14 K	–	1153.3	–
[1], 353.14 K	–	1154.4	–
[1], 354.14 K	–	1156.2	–
[1], 355.14 K	–	1158	–
[1], 356.14 K	–	1159.7	–
[1], 357.14 K	–	1160.9	–
[1], 358.14 K	–	1162.6	–
[1], 359.14 K	–	1164.4	–
[1], 360.14 K	–	1166.1	–
[1], 361.14 K	–	1167.9	–
[1], 362.14 K	–	1169.1	–
[1], 363.14 K	–	1170.8	–
[1], 364.14 K	–	1172.6	–
[1], 365.14 K	–	1174.3	–
[1], 366.14 K	–	1176.1	–
[1], 367.14 K	–	1177.3	–
[1], 368.14 K	–	1179	–
[1], 369.14 K	–	1180.8	–
[1], 370.14 K	–	1182.5	–
[1], 371.14 K	–	1184.3	–
[1], 372.14 K	–	1185.4	–
[1], 373.14 K	–	1187.2	–
[1], 374.14 K	–	1188.9	–
[1], 375.14 K	–	1190.7	–
[1], 376.14 K	–	1192.5	–
[1], 378.14 K	–	1196	–
[1], 379.14 K	–	1197.7	–
[1], 380.14 K	–	1198.9	–
[1], 381.14 K	–	1200.6	–
[1], 382.14 K	–	1202.4	–
[1], 383.14 K	–	1204.2	–
[1], 384.14 K	–	1205.9	–
[1], 385.14 K	–	1207.7	–
[1], 386.14 K	–	1209.4	–
[1], 387.14 K	–	1211.2	–
[1], 388.14 K	–	1212.9	–
[1], 389.14 K	–	1214.1	–
[1], 390.14 K	–	1215.9	–
[1], 391.14 K	–	1217.6	–
[1], 392.14 K	–	1219.4	–
[1], 393.14 K	–	1220.5	–
[1], 394.14 K	–	1222.3	–
[1], 395.14 K	–	1224	–
[1], 396.14 K	–	1225.2	–
[1], 397.14 K	–	1227	–
[1], 398.14 K	–	1228.7	–
[1], 399.14 K	–	1230.5	–
[1], 400.14 K	–	1232.2	–
[1], 401.14 K	–	1234	–
[1], 402.14 K	–	1235.7	–
[1], 403.14 K	–	1236.9	–
[1], 404.14 K	–	1238.7	–
[1], 405.14 K	–	1240.4	–
[1], 406.14 K	–	1242.2	–
[1], 407.14 K	–	1243.9	–
[1], 408.14 K	–	1245.7	–
[1], 409.14 K	–	1247.4	–
[1], 410.14 K	–	1248.6	–
[1], 411.14 K	–	1250.4	–
[1], 412.13 K	–	1252.1	–
[1], 413.14 K	–	1253.9	–
[1], 414.13 K	–	1255.6	–
[1], 415.14 K	–	1257.4	–
[1], 416.14 K	–	1258.5	–
[1], 417.14 K	–	1260.3	–
[2], 278.15 K	989.09	–	1435
[2], 283.15 K	985.27	–	1417.7
[2], 288.15 K	981.48	–	1400.7
[2], 293.15 K	977.69	–	1383.8
[2], 298.15 K	973.91	–	1367
[2], 303.15 K	970.14	–	1350.3
[2], 308.15 K	966.38	–	1333.9
[2], 313.15 K	962.62	–	1317.8
[2], 318.15 K	958.87	–	1301.9
[2], 323.15 K	955.13	–	1286.1
[2], 328.15 K	951.39	–	1270.4
[2], 333.15 K	947.66	–	1254.9
[2], 338.15 K	943.92	–	1239.6
[2], 343.15 K	940.2	–	1224.5
